# From patent US20240124491A1, “METHODS AND COMPOUNDS FOR TREATING FRIEDREICH'S ATAXIA” (Design Therapeutics, Inc., priority 2021, published 2024)
# System: human FXN
# Assay: EC50 assay: FXN mRNA expression by qRT-PCR in GM15850 cells after 48 hrs compound treatment
# Assay type: cell-based
# Conditions: Homo sapiens, 48 hrs incubation, hFXN expression normalized to hGAPDH (qRT-PCR), read-out: EC50 WT (nM, 48 hr)
# Experimental: Cell culture: Cells were cultured in RPMI1640 medium+15% FBS. Cells were maintained at a density between 2e5/mL and 1e6/mL. Cells were centrifuged, resuspended in fresh medium, counted and plated at 150,000 cells per well in 100 uL in a non-coated, flat bottom tissue culture plate.
# Compound treatment: 10 mM stock solution of FA GeneTAC was diluted 1:10 in DMSO followed by a 1:100 dilution in growth medium. Working solution was then further diluted to 10× desired final concentration of 150 nM. Compound was then diluted at a 1:3 ratio into growth medium containing 0.01% DMSO. 5-point, 3-fold dose response curve was generated. 11 μL of 1OX compound was added to wells containing 100 μL cell suspension of GM15850. 11 μL growth medium containing 0.01% DMSO was added to all wells not treated with FA GeneTAC. Cells were allowed to incubate for 48 hrs prior to cell lysis using guanidine isothiocyanate solution.
# RNA isolation: Total RNA was isolated and purified in 384-well column filter plates using chaotropic salt.
# qRT-PCR: qRT-PCR reactions were assembled using AgPath-ID reagents (Thermo Fisher) using 6 uL mastermix and 4 μL RNA. qRT-PCR TaqMan primer probe sets against human FXN (Assay ID Hs01075496_m1) and human GAPDH (Assay ID Hs00266705_g1) were used to measure the intended targets. qRT-PCR was run on the ThermoFisher QuantStudio 6 PRO instrument using the manufacturer's recommended cycling conditions.
# Data analysis: qPCR data was analyzed using Thermo Fisher Design and Analysis software. Data was exported to Excel and hFXN expression was normalized to hGAPDH expression
# A<100 nM; B is 100 nM to 500 nM; C>500 nM.
row,Structure (SMILES),EC50
1,Cc1sc2c(c1C)C(c1ccc(Cl)cc1)=N[C@@H](CC(=O)N1CCC(N3CCN(CCOCCOCCOCCOCCC(=O)NCCCN(CCCNC(=O)CCNC(=O)c4nc(NC(=O)CCNC(=O)c5cc(NC(=O)c6nc(NC(=O)CCNC(=O)c7cc(NC(=O)c8nccn8C)cn7C)cn6C)cn5C)cn4C)CC(F)(F)F)CC3)CC1)c1nnc(C)n1-2 [Compound 69],< 100 nM
2,Cc1sc2c(c1C)C(c1ccc(Cl)cc1)=N[C@@H](CC(=O)NC1CCN(CCOCCOCCOCCOCCC(=O)NC3(C(=O)NCCOCCOCCOCCNC(=O)CCNC(=O)c4nc(NC(=O)CCNC(=O)c5cc(NC(=O)c6nc(NC(=O)CCNC(=O)c7cc(NC(=O)c8nccn8C)cn7C)cn6C)cn5C)cn4C)CCNCC3)CC1)c1nnc(C)n1-2 [Compound 70],100 to 500 nM
3,Cc1sc2c(c1C)C(c1ccc(Cl)cc1)=N[C@@H](CC(=O)NC1CCN(CCOCCOCCOCCC(=O)NC3(C(=O)NCCOCCOCCOCCOCCNC(=O)CCNC(=O)c4nc(NC(=O)CCNC(=O)c5cc(NC(=O)c6nc(NC(=O)CCNC(=O)c7cc(NC(=O)c8nccn8C)cn7C)cn6C)cn5C)cn4C)CCNCC3)CC1)c1nnc(C)n1-2 [Compound 71],100 to 500 nM
4,Cc1sc2c(c1C)C(c1ccc(Cl)cc1)=N[C@@H](CC(=O)NC1CCN(CCOCCOCCOCCC(=O)NC3(C(=O)NCCOCCOCCOCCOCCNC(=O)CCNC(=O)c4nc(NC(=O)CCNC(=O)c5cc(NC(=O)c6nc(NC(=O)CCNC(=O)c7cc(NC(=O)c8nccn8C)cn7C)cn6C)cn5C)cn4C)CCN(CC(F)(F)F)CC3)CC1)c1nnc(C)n1-2 [Compound 73],100 to 500 nM
5,COCCOCCOCCOCCOCCOCCOCCOCCOCCOCCOCCOCCOCCOCCOCCOCCC(=O)N1CCC(NC(=O)CCOCCOCCOCCN2CCC(NC(=O)C[C@@H]3N=C(c4ccc(Cl)cc4)c4c(sc(C)c4C)-n4c(C)nnc43)CC2)(C(=O)NCCOCCOCCOCCOCCNC(=O)CCNC(=O)c2nc(NC(=O)CCNC(=O)c3cc(NC(=O)c4nc(NC(=O)CCNC(=O)c5cc(NC(=O)c6nccn6C)cn5C)cn4C)cn3C)cn2C)CC1 [Compound 74],> 500 nM
6,COCCOCCOCCOCCOCCOCCOCCOCCOCCOCCOCCC(=O)N1CCC(NC(=O)CCOCCOCCOCCN2CCC(NC(=O)C[C@@H]3N=C(c4ccc(Cl)cc4)c4c(sc(C)c4C)-n4c(C)nnc43)CC2)(C(=O)NCCOCCOCCOCCOCCNC(=O)CCNC(=O)c2nc(NC(=O)CCNC(=O)c3cc(NC(=O)c4nc(NC(=O)CCNC(=O)c5cc(NC(=O)c6nccn6C)cn5C)cn4C)cn3C)cn2C)CC1 [Compound 76],100 to 500 nM
7,Cc1sc2c(c1C)C(c1ccc(Cl)cc1)=N[C@@H](CC(=O)N1CCC(C#CC#CCNCCOCCOCCOCCOCCOCCOCCNC(=O)CCNC(=O)c3nc(NC(=O)CCNC(=O)c4cc(NC(=O)c5nc(NC(=O)CCNC(=O)c6cc(NC(=O)c7nccn7C)cn6C)cn5C)cn4C)cn3C)CC1)c1nnc(C)n1-2 [Compound 78],< 100 nM
8,Cc1sc2c(c1C)C(c1ccc(Cl)cc1)=N[C@@H](CC(=O)N1CCC(C#CC#CCNCCOCCOCCOCCOCCNC(=O)CCNC(=O)c3nc(NC(=O)CCNC(=O)c4cc(NC(=O)c5nc(NC(=O)CCNC(=O)c6cc(NC(=O)c7nccn7C)cn6C)cn5C)cn4C)cn3C)CC1)c1nnc(C)n1-2 [Compound 79],< 100 nM
9,Cc1noc2c1-c1ccccc1C(c1ccc(Cl)cc1)=N[C@H]2CC(=O)Nc1ccc(C#CC#CCNC(=O)COCCOCCOCCOCCOCCNC(=O)CCNC(=O)c2nc(NC(=O)CCNC(=O)c3cc(NC(=O)c4nc(NC(=O)CCNC(=O)c5cc(NC(=O)c6nccn6C)cn5C)cn4C)cn3C)cn2C)cc1 [Compound 84],> 500 nM
10,Cc1sc2c(c1C)C(c1ccc(Cl)cc1)=N[C@@H](CC(=O)N[C@H]1CC[C@@H](N(C)CCOCCOCCOCCN3CCN(CCOCCOCCOCCNC(=O)CCNC(=O)c4nc(NC(=O)CCNC(=O)C5=CC(NC(=O)c6nc(NC(=O)CCNC(=O)c7cc(NC(=O)c8nccn8C)cn7C)cn6C)CN5C)cn4C)CC3)CC1)c1nnc(C)n1-2 (stereo partly shown) [Compound 86],100 to 500 nM
11,Cc1sc2c(c1C)C(c1ccc(Cl)cc1)=N[C@@H](CC(=O)N[C@H]1CC[C@@H](N(C)CCOCCOCCOCCOCCOCCOCCOCCOCCNC(=O)CCNC(=O)c3nc(NC(=O)CCNC(=O)c4cc(NC(=O)c5nc(NC(=O)CCNC(=O)c6cc(NC(=O)c7nccn7C)cn6C)cn5C)cn4C)cn3C)CC1)c1nnc(C)n1-2 [Compound 87],< 100 nM
12,Cc1sc2c(c1C)C(c1ccc(Cl)cc1)=N[C@@H](CC(=O)NC1CCN(CCOCCOCCOCCOCCOCCOCCOCCOCCNC(=O)CCNC(=O)c3nc(NC(=O)CCNC(=O)c4cc(NC(=O)c5nc(NC(=O)CCNC(=O)c6cc(NC(=O)c7nccn7C)cn6C)cn5C)cn4C)cn3C)CC1)c1nnc(C)n1-2 [Compound 88],< 100 nM
13,Cc1sc2c(c1C)C(c1ccc(Cl)cc1)=N[C@@H](CC(=O)NC1CCN(C3CN(CCOCCOCCOCCOCCOCCOCCOCCNC(=O)CCNC(=O)c4nc(NC(=O)CCNC(=O)c5cc(NC(=O)c6nc(NC(=O)CCNC(=O)c7cc(NC(=O)c8nccn8C)cn7C)cn6C)cn5C)cn4C)C3)CC1)c1nnc(C)n1-2 [Compound 89],< 100 nM
14,Cc1sc2c(c1C)C(c1ccc(Cl)cc1)=N[C@@H](CC(=O)NC1CCN(C3CCN(CCOCCOCCOCCOCCOCCOCCOCCNC(=O)CCNC(=O)c4nc(NC(=O)CCNC(=O)C5=CC(NC(=O)c6nc(NC(=O)CCNC(=O)c7cc(NC(=O)c8nccn8C)cn7C)cn6C)CN5C)cn4C)CC3)CC1)c1nnc(C)n1-2 (stereo partly shown) [Compound 90],100 to 500 nM
15,Cc1sc2c(c1C)C(c1ccc(Cl)cc1)=N[C@@H](CC(=O)NC1CCN(CCN3CCN(CCOCCOCCOCCOCCOCCOCCNC(=O)CCNC(=O)c4nc(NC(=O)CCNC(=O)c5cc(NC(=O)c6nc(NC(=O)CCNC(=O)c7cc(NC(=O)c8nccn8C)cn7C)cn6C)cn5C)cn4C)CC3)CC1)c1nnc(C)n1-2 [Compound 91],< 100 nM
16,Cc1sc2c(c1C)C(c1ccc(Cl)cc1)=N[C@@H](CC(=O)NC1CCN(CC#CC#CC3CCN(CCOCCOCCOCCOCCOCCNC(=O)CCNC(=O)c4nc(NC(=O)CCNC(=O)c5cc(NC(=O)c6nc(NC(=O)CCNC(=O)c7cc(NC(=O)c8nccn8C)cn7C)cn6C)cn5C)cn4C)CC3)CC1)c1nnc(C)n1-2 [Compound 92],< 100 nM
17,Cc1sc2c(c1C)C(c1ccc(Cl)cc1)=N[C@@H](CC(=O)NC1CCN(CCOCCOCCOCCOCCOCCOCCOCCN3CCN(C(=O)CCNC(=O)c4nc(NC(=O)CCNC(=O)c5nc(NC(=O)c6nc(NC(=O)CCNC(=O)c7cc(NC(=O)c8nccn8C)cn7C)cn6C)cn5C)cn4C)CC3)CC1)c1nnc(C)n1-2 [Compound 98],100 to 500 nM
18,Cc1sc2c(c1C)C(c1ccc(Cl)cc1)=N[C@@H](CC(=O)NC1CCN(CCOCCOCCOCCOCCOCCOCCOCCNC3CCN(C(=O)CCNC(=O)c4nc(NC(=O)CCNC(=O)c5nc(NC(=O)c6nc(NC(=O)CCNC(=O)c7cc(NC(=O)c8nccn8C)cn7C)cn6C)cn5C)cn4C)CC3)CC1)c1nnc(C)n1-2 [Compound 99],100 to 500 nM
19,Cc1sc2c(c1C)C(c1ccc(Cl)cc1)=N[C@@H](CC(=O)N1CCN(CCOCCOCCOCCOCCOCCOCCOCCOCCNC(=O)CCNC(=O)c3nc(NC(=O)CCNC(=O)c4cc(NC(=O)c5nc(NC(=O)CCNC(=O)c6cc(NC(=O)c7nccn7C)cn6C)cn5C)cn4C)cn3C)CC1)c1nnc(C)n1-2 [Compound 101],> 500 nM
20,Cc1sc2c(c1C)C(c1ccc(Cl)cc1)=N[C@@H](CC(=O)Nc1ccc(C#CC#CCN(CCOCCOCCOCCOCCOCCN)CCOCCOCCOCCOCCOCCNC(=O)CCNC(=O)c3nc(NC(=O)CCNC(=O)c4cc(NC(=O)c5nc(NC(=O)CCNC(=O)c6cc(NC(=O)c7nccn7C)cn6C)cn5C)cn4C)cn3C)cc1)c1nnc(C)n1-2 [Compound 104],100 to 500 nM
21,Cc1sc2c(c1C)C(c1ccc(Cl)cc1)=N[C@@H](CC(=O)NC1CCN(CCOCCOCCN3CCN(CCOCCOCCOCCOCCNC(=O)CCNC(=O)c4nc(NC(=O)CCNC(=O)c5cc(NC(=O)c6nc(NC(=O)CCNC(=O)c7cc(NC(=O)c8nccn8C)cn7C)cn6C)cn5C)cn4C)CC3)CC1)c1nnc(C)n1-2 [Compound 106],< 100 nM
22,Cc1sc2c(c1C)C(c1ccc(Cl)cc1)=N[C@@H](CC(=O)NC1CCN(CCCCCN3CCN(CCOCCOCCOCCOCCOCCNC(=O)CCNC(=O)c4nc(NC(=O)CCNC(=O)c5cc(NC(=O)c6nc(NC(=O)CCNC(=O)c7cc(NC(=O)c8nccn8C)cn7C)cn6C)cn5C)cn4C)CC3)CC1)c1nnc(C)n1-2 [Compound 107],100 to 500 nM
23,Cc1sc2c(c1C)C(c1ccc(Cl)cc1)=N[C@@H](CC(=O)NC1CCN(CCOCCOCCOCCOCCN3CCN(CCOCCOCCNC(=O)CCNC(=O)c4nc(NC(=O)CCNC(=O)c5cc(NC(=O)c6nc(NC(=O)CCNC(=O)c7cc(NC(=O)c8nccn8C)cn7C)cn6C)cn5C)cn4C)CC3)CC1)c1nnc(C)n1-2 [Compound 108],< 100 nM
24,Cc1sc2c(c1C)C(c1ccc(Cl)cc1)=N[C@@H](CC(=O)NC1CCN(CCOCCOCCOCCOCCOCCN3CCN(CCCCCNC(=O)CCNC(=O)c4nc(NC(=O)CCNC(=O)c5cc(NC(=O)c6nc(NC(=O)CCNC(=O)c7cc(NC(=O)c8nccn8C)cn7C)cn6C)cn5C)cn4C)CC3)CC1)c1nnc(C)n1-2 [Compound 109],100 to 500 nM
25,Cc1sc2c(c1C)C(c1ccc(Cl)cc1)=N[C@@H](CC(=O)NCCOCCOCCOCCN(CCOCCOCCOCCNC(=O)C[C@@H]1N=C(c3ccc(Cl)cc3)c3c(sc(C)c3C)-n3c(C)nnc31)CCOCCOCCOCCOCCOCCNC(=O)CCNC(=O)c1nc(NC(=O)CCNC(=O)c3cc(NC(=O)c4nc(NC(=O)CCNC(=O)c5cc(NC(=O)c6nccn6C)cn5C)cn4C)cn3C)cn1C)c1nnc(C)n1-2 [Compound 111],< 100 nM
